For assay [1], the system named is Pseudomonas aeruginosa. The assay can be described thus: Bactericidal activity against Pseudomonas aeruginosa PAO1 after 18 hr by crystal violet staining method. The assay is classed as functional, organism-based.
Assay [2] deals with Bacillus subtilis. The assay is described as follows: Induction of ROS production in Bacillus subtilis NCIM 2063 at MIC50 concentration after 3 hr by DCFH-DA-based fluorimetric analysis. The format is functional, organism-based.
Assay [3] has as its system Escherichia coli. The assay can be described thus: Antibacterial activity against Escherichia coli NCIM 2931 after 12 hr by resazurin reduction assay. The settings on record: NCIM 2931, 12 h. The assay is classed as functional. On the technique in general: The colour change of resazurin is a common sign of viable cells or microbes.
The test system of assay [4] is Bacillus subtilis. The assay is described as follows: Antibacterial activity against Bacillus subtilis NCIM 2063 after 12 hr by resazurin reduction assay. The format is functional. The settings on record: NCIM 2063, 12 h.
In assay [5] the test system is Pseudomonas aeruginosa. The assay can be described thus: Antiquorum-sensing activity against Pseudomonas aeruginosa PAO1 cells assessed as decrease in biofilm formation at 25 to 100 ug/ml after 18 hr by crystal violet staining method. The format is functional, organism-based.
For assay [6], the system named is Bacillus subtilis. The assay is described as follows: Antibacterial activity against Bacillus subtilis NCIM 2063 incubated for 12 hr followed by subculturing measured after 24 hr by colony counting method. The assay is classed as functional.
Assay [7] relates to Bacillus subtilis. The assay is described as follows: Induction of ROS production in Bacillus subtilis NCIM 2063 assessed as morphological changes at MIC50 concentration after 3 hr by scanning electron microscopic analysis. The assay is classed as functional, organism-based.
Assay [8] deals with Escherichia coli. The assay can be described thus: Antibacterial activity against Escherichia coli NCIM 2931 incubated for 12 hr followed by subculturing measured after 24 hr by colony counting method. The format is functional.
For assay [9], the system named is Pseudomonas aeruginosa. The assay can be described thus: Antiquorum-sensing activity against Pseudomonas aeruginosa PAO1 cells assessed as scattered cells at 25 ug/ml after 18 hr by scanning electron microscopic analysis. The format is functional, organism-based.

Each structure is given as a SMILES string. In brackets after ≈: the same amount, converted by molar mass. Activity calls are given as the source filed them. The calls are words filed in the database; no cut-off is given here.

For `COc1ccccc1-c1csc(N)n1`, the outcome with Pseudomonas aeruginosa [1], in the assay on Pseudomonas aeruginosa [5] and with Pseudomonas aeruginosa [9] was Active. In addition, the outcome with Bacillus subtilis [2] and in the assay on Bacillus subtilis [7] was inactive. In addition, the figures for the MIC against Escherichia coli [3] and in the assay with Bacillus subtilis [4] were 500 µg/mL (≈ 2420 µM) and 250 µg/mL (≈ 1210 µM), respectively. For the same compound, the MBC is 250 µg/mL (≈ 1210 µM) against Bacillus subtilis [6] and 500 µg/mL (≈ 2420 µM) against Escherichia coli [8].

As a reminder, the MIC is the lowest concentration found to suppress growth. Read a high MIC as weaker potency. The MBC is the lowest tested concentration that kills the bacteria rather than only halting them. Lower therefore signals more potent killing.

These data come from ChEMBL document CHEMBL3045351, “A 4-(o-methoxyphenyl)-2-aminothiazole: an anti-quorum sensing compound” (2013).
